# Measurements taken from patent US20210391038A1, “SPECIFICALLY-SHAPED CRYSTAL OF COMPOUND AND METHOD FOR PRODUCING SAME” (TOWA PHARMACEUTICAL CO., LTD., priority 2018, published 2021).
# Structures can show the parent of a compound that is named as a salt. Where two headings read alike, the source gives them in different places.
# Key:
# Format in all cases: physicochemical
# [1] = Sphericity from SEM images (ImageJ); design: key: 1 = true sphere; closer to 1 = more spherical; mean of ≥5 particles
# From the text: In the present description, “spherulite” means a crystal aggregate (polycrystal) which has a radial or concentric thin layered structure and has a spherical outer shape. Whether the crystal obtained by the method of the present invention is a spherulite or not can be determined, for example, by observing the outer shape of the crystal using SEM. For example, it can be discriminated by cutting the crystal aggregate and observing the internal structure thereof using SEM. The sphericity of the spherulite obtained by the method of the present invention is usually 0.60 or more, preferably 0.70 or more, more preferably 0.80 or more, particularly preferably 0.90 or more, and most preferably 0.95 or more. The sphericity can be calculated by the following method.
# When an image of particles taken by SEM is analyzed using image processing software ImageJ, a coordinate group representing the position of pixels forming the outline of a particle is obtained. The length of the coordinate group is defined as N, and one pixel coordinate of each outline is defined as p[i] (1≤i≤N). The angle between a straight line l(k) connecting two points p[k] and p[k+N/D] and a straight line m(k) connecting two points p[k+N/D] and p[k+2N/D] is defined as θ(k) (−180°<θ<180°) (1≤k≤N, 1≤D≤N). D corresponds to the number of partitions of the outline. When N/D is not a natural number, the value is defined as the quotient obtained by dividing N by D. By calculating this angle with k=1 to N, N pieces of θ value can be obtained.
# When the particle is a true sphere, θ(k) is 360/D, and the closer the particle is to a true sphere, the closer θ(k) is to this value. The error between θ(k) and the true value 360/D is evaluated by the root-mean-square error (RMSE) of the following formula:
# Using the RMSE value of when D is 10 (θ(k)=36°), the sphericity is defined by the following formula: […]
# The sphericity is 1 in a true sphere, and the closer the particle is to a true sphere, the closer the sphericity is to 1. Meanwhile, the sphericity of an ellipse whose long axis is infinitely long is zero. The sphericity is measured for five or more particles to calculate the mean. This mean is defined as the sphericity of each sample (see FIGS. 42 and 43).
# [2] = Particle size distribution (d50, sharpness index); design: key to sharpness index of the crystal thus obtained / sharpness index of the fine powders: calculated by formula from d10, d50, d90; 1.0 = most uniform particle size
# From the text: d10 in the present description is a value obtained from a particle size distribution analyzer, and represents a particle size of a particle corresponding to 10% of accumulation from the smaller particle side in the particle size distribution based on the volume.
# d50 in the present description is a value obtained from a particle size distribution analyzer, and represents a particle size of a particle corresponding to 50% of accumulation from the smaller particle side in the particle size distribution based on the volume.
# “Sharpness index” in the present description is an index representing the uniformity of a particle size of a particle in a powder, and a sharpness index of 1.0 represents a powder having the most uniform particle size. The closer the sharpness index is to 1.0, the more the particle size of the powder is uniform. Specifically, the sharpness index represents a value calculated using the following formula from the values of d10, d50, and d90 measured by a particle size distribution analyzer:
# Images for measuring the number of particles were obtained by a scanner GT-X830 manufactured by SEIKO EPSON CORPORATION. The powder X-ray diffraction (XRD) was measured using a desktop X-ray diffraction device MiniFlex300 manufactured by Rigaku Corporation. […] The particle strength was measured using a particle hardness measuring device NEW GRANO manufactured by OKADA SEIKO CO., LTD. […] The purity of a compound was measured by a high performance liquid chromatograph (LC-20A) manufactured by Shimadzu Corporation.
# [3] = Measurement of critical degree of supersaturation of spherulite
# From the text: “Supersaturated solution” in the present description means a solution in a state of containing a solute exceeding the solubility. As the degree of supersaturation, “degree of supersaturation” can be used. Regarding the degree of supersaturation, when the concentration (mass concentration (g/g)) of a compound dissolved in a supersaturated solution is defined as C and the solubility of the compound is defined as Cs, the degree of supersaturation S can be represented by the following formula: […]
# “Critical degree of supersaturation” in the present description means the lowest degree of supersaturation required to obtain a specifically-shaped crystal. […] The value of a critical degree of supersaturation varies depending on the shape of a crystal. For example, all of values of a critical degree of supersaturation required to obtain a plate crystal, a critical degree of supersaturation required to obtain a needle crystal, and a critical degree of supersaturation required to obtain a spherulite are different. The critical degree of supersaturation required to obtain a spherulite is higher than the critical degree of supersaturation required to obtain a plate crystal or a needle crystal.
# The actual measured value of the critical degree of supersaturation (S*) can be measured as follows:
# (1) 100 particles are observed by SEM. (2) 5 to 10 particles whose shape is close to a desired specific shape are selected, and the shape is evaluated. In particular, when the desired specific shape is a sphere, the sphericity is evaluated. (3) Based on the evaluation index of the shape, whether the selected particles have the desired specific shape or not is determined. In particular, when the desired specific shape is a sphere, the case where the sphericity is 0.60 or more is determined as a spherulite. (4) The above-mentioned operation is performed for each sample having a different degree of supersaturation during crystallization, and the minimum value of a degree of supersaturation having the specifically-shaped particles is determined as the critical degree of supersaturation. The difference between the maximum value of a degree of supersaturation not having the specifically-shaped particles and the critical degree of supersaturation should be 20% or less.
# The critical degree of supersaturation of a spherulite of ketotifen fumarate was determined as follows. To 2.0 g of ketotifen fumarate, 10 mL (5 v/w) of methanol was added, followed by reflux to completely dissolve. This solution was added dropwise to 50 mL of isopropanol at 20° C. to prepare a supersaturated solution of ketotifen fumarate. The degree of supersaturation of the supersaturated solution at the end of dropwise addition was 9.0. The supersaturated solution was crystallized. The crystal was collected by filtration, followed by drying under reduced pressure at 40° C., thus obtaining a crystal of ketotifen fumarate.
# Similarly, when a substrate and a solvent different from those mentioned above are used, a plurality of samples having a different degree of supersaturation are prepared and crystallized, and then the critical degree of supersaturation of the spherulite was measured.
# [4] = SEM image analysis, mean of particles
# [5] = dry particle size distribution, volume based
# [6] = SEM image analysis, mean of particles, trihydrate
# [7] = calculated from d10, d50, d90, trihydrate
# [8] = dry particle size distribution, volume based, trihydrate
compound,measurement,setting,value
"CN(C)CCC[C@@]1(c2ccc(F)cc2)OCc2cc(C#N)ccc21 [Example 19, escitalopram oxalate]",sphericity of the spherulite,[1]; [4],0.98±0.01
same,sharpness index of the crystal thus obtained,"[2]; calculated from d10, d50, d90",4.87
same,d50 of the crystal thus obtained,[2]; [5],50.7 μm
"COc1ccc2[n-]c([S@@+]([O-])Cc3ncc(C)c(OC)c3C)nc2c1.COc1ccc2[n-]c([S@@+]([O-])Cc3ncc(C)c(OC)c3C)nc2c1.O.O.O.[Mg+2] [Example 10(1), esomeprazole magnesium trihydrate]",sphericity of the spherulite,[1]; [6],0.97±0.01
same,sharpness index of the crystal thus obtained,[2]; [7],1.51
same,d50 of the crystal thus obtained,[2]; [8],39.9 μm
same,d50,"[2]; samples of filtration test (Table 7), trihydrate",39.9 μm
"CCCCCCOC(=O)N=C(N)c1ccc(NCc2nc3cc(C(=O)N(CCC(=O)OCC)c4ccccn4)ccc3n2C)cc1 [Example 24, dabigatran etexilate methanesulfonate]",sphericity of the spherulite,[1]; [4],0.95±0.03
same,sharpness index of the crystal thus obtained,"[2]; calculated from d10, d50, d90",2.61
same,d50 of the crystal thus obtained,[2]; [5],61.3 μm
"Cc1cc(N2CCN([C@@H]3CN[C@H](C(=O)N4CCSC4)C3)CC2)n(-c2ccccc2)n1 [Example 22, teneligliptin hydrobromide hydrate]",sphericity of the spherulite,[1]; [4],0.93±0.04
same,sharpness index of the crystal thus obtained,"[2]; calculated from d10, d50, d90",3.77
same,d50 of the crystal thus obtained,[2]; [5],33.5 μm
"COc1ccc2[n-]c([S@@+]([O-])Cc3ncc(C)c(OC)c3C)nc2c1.COc1ccc2[n-]c([S@@+]([O-])Cc3ncc(C)c(OC)c3C)nc2c1.O.O.O.[Mg+2] [Example 2, esomeprazole magnesium trihydrate]",sphericity of the spherulite,[1]; [6],0.95±0.03
same,sharpness index of the fine powders,[2]; after centrifugal classification and sieving,1.3
same,d50 of the fine powders,"[2]; after centrifugal classification and sieving (on 390 M, 38 μm)",54.6 μm
same,sharpness index of the crystal thus obtained,[2]; [7],2.5
same,d50 of the crystal thus obtained,[2]; [8],56.1 μm
"CNCC[C@H](Oc1cccc2ccccc12)c1cccs1 [Example 15, duloxetine hydrochloride]",sphericity of the spherulite,[1],0.92±0.07
same,d50 of the crystal thus obtained,[2],138 μm
same,sharpness index of the crystal thus obtained,[2],4.7
"Cc1cccc(C)c1NC(=O)CC12CCCN1CCC2.Cl [Example 25, pilsicainide hydrochloride anhydride]",sphericity of the spherulite,[1]; [4],0.69±0.18
same,sharpness index of the crystal thus obtained,"[2]; calculated from d10, d50, d90",2.29
same,d50 of the crystal thus obtained,[2]; [5],116 μm
"N#C[C@@H]1CCCN1C(=O)CNC12CC3CC(CC(O)(C3)C1)C2 [Example 20, vildagliptin]",sphericity of the spherulite,[1]; [4],0.99±0.01
N#C[C@@H]1CCCN1C(=O)CNC12CC3CC(CC(O)(C3)C1)C2 [Vildagliptin],actual measured value of the critical degree of supersaturation,[3],9.2
same,Critical degree of supersaturation S Experimental value,"[3]; entry 39, solvent 1 EtOH, solvent 2 TBME, solvent 2/solvent 1 ratio 10, crystallization 0 °C",9.2
same,Critical degree of supersaturation S Experimental value,"[3]; entry 40, solvent 1 EtOH, solvent 2 TBME, solvent 2/solvent 1 ratio 10, crystallization 10 °C",7
same,Critical degree of supersaturation S Experimental value,"[3]; entry 41, solvent 1 MEK, solvent 2 Toluene, solvent 2/solvent 1 ratio 10, crystallization 0 °C",8.5
same,Critical degree of supersaturation S Experimental value,"[3]; entry 42, solvent 1 IPA, solvent 2 TBME, solvent 2/solvent 1 ratio 10, crystallization 0 °C",11
same,Critical degree of supersaturation S Experimental value,"[3]; entry 43, solvent 1 IPA, solvent 2 TBME, solvent 2/solvent 1 ratio 10, crystallization 10 °C",11.6
same,Critical degree of supersaturation S Experimental value,"[3]; entry 44, solvent 1 IPA, solvent 2 TBME, solvent 2/solvent 1 ratio 10, crystallization 20 °C",11.9
"CN1CCC(=C2c3ccccc3CC(=O)c3sccc32)CC1 [Example 1, ketotifen fumarate]",sphericity of the spherulite,[1]; [4],0.78±0.02
"NC(CCC(=O)O)C(=O)O (racemic) [Example 14, DL-glutamic acid]",sphericity of the spherulite,[1]; [4],0.95±0.03
COc1cccc(C2(O)CCCCC2CN(C)C)c1 (stereo not drawn) [Tramadol hydrochloride],actual measured value of the critical degree of supersaturation,[3],4.2
same,Critical degree of supersaturation S Experimental value,"[3]; entry 36, solvent 1 MeOH, solvent 2 i-PrOAc, solvent 2/solvent 1 ratio 20, crystallization 10 °C",4.7
same,Critical degree of supersaturation S Experimental value,"[3]; entry 37, solvent 1 IPA, solvent 2 TBME, solvent 2/solvent 1 ratio 30, crystallization 10 °C",11.1
same,Critical degree of supersaturation S Experimental value,"[3]; entry 38, solvent 1 EtOH, solvent 2 TBME, solvent 2/solvent 1 ratio 30, crystallization 10 °C",22.4
COC(=O)[C@H](c1ccccc1Cl)N1CCc2sccc2C1 [Clopidogrel sulfate],Critical degree of supersaturation S Experimental value,"[3]; entry 3, solvent 1 H2O, solvent 2 2-BuOH, solvent 2/solvent 1 ratio 222, crystallization 20 °C",9.7
Cn1c(=O)c2[nH]cnc2n(C)c1=O.[Mg] [Theophylline magnesium salt],actual measured value of the critical degree of supersaturation,[3],3.5
same,Critical degree of supersaturation S Experimental value,"[3]; entry 28, solvent 1 MeOH, solvent 2 H2O, solvent 2/solvent 1 ratio 3, crystallization 0 °C",3.5
same,Critical degree of supersaturation S Experimental value,"[3]; entry 29, solvent 1 EtOH, solvent 2 H2O, solvent 2/solvent 1 ratio 3, crystallization 0 °C",3.9
same,Critical degree of supersaturation S Experimental value,"[3]; entry 30, solvent 1 Acetone, solvent 2 H2O, solvent 2/solvent 1 ratio 3, crystallization 0 °C",6.3
same,Critical degree of supersaturation S Experimental value,"[3]; entry 31, solvent 1 IPA, solvent 2 H2O, solvent 2/solvent 1 ratio 3, crystallization 0 °C",6.6
"Cc1c(OCC(F)(F)F)ccnc1C[S+]([O-])c1nc2ccccc2[nH]1 (stereo not drawn) [Example 11, lansoprazole]",sphericity of the spherulite,[1]; [4],0.94±0.04
